# Measured values from patent publication US20220025334A1, “SYNTHETIC FOOD COMPOSITIONS” (Wild Type, Inc., priority 2018, published 2022).
# Entries after “also recorded” stand apart in the source; their conditions may differ.
# Test system: duck hepatocytes
# Assay: Induction of steatosis in cultured duck hepatocytes by fatty acid incubation
# Assay type: cell-based
smiles,measurement,setting,value
CCCCC/C=C\C/C=C\CCCCCCCC(=O)O [linoleic acid],dose response: linoleic acid concentration versus percentage of hepatocytes having steatosis,"0, 0.1, 0.25, 0.5, 1, 2 μM linoleic acid (FIG. 16B)",corresponding increase in the percentage of hepatocytes with steatosis
same,induction of steatosis (accumulation of intracellular lipid-containing vesicles),"2 μM linoleic acid vs untreated control, duck hepatocytes (FIG. 16A)",successful induction of steatosis; also recorded: successfully induced to undergo steatosis
same,percentage of steatotic hepatocytes,"2 μM linoleic acid, duck hepatocytes (FIG. 16B)",above 85%
